The subject of test [1] is Schistocerca americana. The test can be described thus: Antifeedant activity against Schistocerca americana in compound treated Citrus paradisi MacFad (Rutaceae) potted plants assessed as area consumed from leaf disk measured under different 4 hr sunlight exposure at 18 g/l by No-choice tests. The test is classed as functional, organism-based.
In test [2] the test system is Diaprepes abbreviatus. Put plainly: Antifeedant activity against Diaprepes abbreviatus in compound treated healthy romaine lettuce plants assessed as area consumed from leaf disk at 5.6 ml/l by choice tests (1.45 +/- 0.1 cm'2). The test is classed as functional.
The test system of test [3] is Schistocerca americana. The test can be described thus: Antifeedant activity against Schistocerca americana in compound treated Citrus paradisi MacFad (Rutaceae) potted plants assessed as area consumed from leaf disk measured under 4 hr sunlight exposure at 18 g/l by No-choice tests. The test is classed as functional, organism-based.
Test [4] deals with Schistocerca americana. The test can be described thus: Antifeedant activity against Schistocerca americana in compound treated Citrus paradisi MacFad (Rutaceae) potted plants assessed as area consumed from leaf disk measured under different 8 hr sunlight exposure at 18 g/l by No-choice tests. It is filed as functional, organism-based.
In test [5] the test system is Schistocerca americana. The test can be described thus: Antifeedant activity against Schistocerca americana in compound treated Citrus paradisi MacFad (Rutaceae) potted plants assessed as area consumed from leaf disk measured under 8 hr sunlight exposure at 18 g/l by No-choice tests. The test is classed as functional, organism-based.
Test [6] relates to Schistocerca americana. The test can be described thus: Antifeedant activity against Schistocerca americana in compound treated Citrus paradisi MacFad (Rutaceae) potted plants assessed as area consumed from leaf disk measured under different 12 hr sunlight exposure at 18 g/l by No-choice tests. The test is classed as functional, organism-based.
Test [7] concerns Schistocerca americana. The test can be described thus: Antifeedant activity against Schistocerca americana in compound treated Citrus paradisi MacFad (Rutaceae) potted plants assessed as area consumed from leaf disk measured under 4 hr sunlight exposure at 5.6 ml/l by No-choice tests. The test is classed as functional, organism-based.
Test [8] deals with Schistocerca americana. The test can be described thus: Antifeedant activity against Schistocerca americana in compound treated healthy romaine lettuce plants assessed as area consumed from leaf disk at 5.6 ml/l by choice tests (2.62 +/- 0.1 cm'2). It is filed as functional.
Test [9] concerns Diaprepes abbreviatus. The test can be described thus: Antifeedant activity against Diaprepes abbreviatus in compound treated healthy romaine lettuce plants assessed as area consumed from leaf disk at 5.6 ml/l by No-choice tests (1.40 +/- 0.1 cm'2). The test is classed as functional.
Test [10] deals with Schistocerca americana. Put plainly: Antifeedant activity against Schistocerca americana in compound treated Citrus paradisi MacFad (Rutaceae) potted plants assessed as area consumed from leaf disk measured under 8 hr sunlight exposure at 5.6 ml/l by No-choice tests. It is filed as functional, organism-based.
Test [11] has as its system Schistocerca americana. Put plainly: Antifeedant activity against Schistocerca americana in compound treated healthy romaine lettuce plants assessed as area consumed from leaf disk at 5.6 ml/l by No-choice tests (3.10 +/- 0.1 cm'2). It is filed as functional.
Test [12] deals with Schistocerca americana. Put plainly: Antifeedant activity against Schistocerca americana in compound treated healthy romaine lettuce plants assessed as area consumed from leaf disk at 31.3 ml/l by choice tests (1.79 +/- 0.2 cm'2). The test is classed as functional.
In test [13] the test system is Diaprepes abbreviatus. The test can be described thus: Antifeedant activity against Diaprepes abbreviatus in compound treated healthy romaine lettuce plants assessed as area consumed from leaf disk at 31.3 ml/l by choice tests (1.39 +/- 0.1 cm'2). It is filed as functional.
The subject of test [14] is Diaprepes abbreviatus. The test can be described thus: Antifeedant activity against Diaprepes abbreviatus in compound treated healthy romaine lettuce plants assessed as area consumed from leaf disk at 48 g/l by choice tests (1.47 +/- 0.1 cm'2). It is filed as functional.
Test [15] concerns Schistocerca americana. The test can be described thus: Antifeedant activity against Schistocerca americana in compound treated healthy romaine lettuce plants assessed as area consumed from leaf disk at 48 g/l by choice tests (1.88 +/- 0.2 cm'2). It is filed as functional.
Test [16] has as its system Diaprepes abbreviatus. The test can be described thus: Antifeedant activity against Diaprepes abbreviatus in compound treated Citrus paradisi MacFad (Rutaceae) potted plants assessed as reduction in leaf consumption measured under 8 hr sunlight exposure at 5.6 ml/l by No-choice tests. The test is classed as functional, organism-based.
Test [17] has as its system Diaprepes abbreviatus. Put plainly: Antifeedant activity against Diaprepes abbreviatus in compound treated healthy romaine lettuce plants assessed as area consumed from leaf disk at 48 g/l by No-choice tests (2.51 +/- 0.2 cm'2). It is filed as functional.
Test [18] concerns Diaprepes abbreviatus. The test can be described thus: Antifeedant activity against Diaprepes abbreviatus in compound treated Citrus paradisi MacFad (Rutaceae) potted plants assessed as reduction in leaf consumption measured under 12 hr sunlight exposure at 5.6 ml/l by No-choice tests. It is filed as functional, organism-based.
Test [19] relates to Diaprepes abbreviatus. Put plainly: Antifeedant activity against Diaprepes abbreviatus in compound treated Citrus paradisi MacFad (Rutaceae) potted plants assessed as reduction in leaf consumption measured under 4 hr sunlight exposure at 5.6 ml/l by No-choice tests. The test is classed as functional, organism-based.
Test [20] relates to Diaprepes abbreviatus. Put plainly: Antifeedant activity against Diaprepes abbreviatus in compound treated healthy romaine lettuce plants assessed as area consumed from leaf disk at 18 g/l by choice tests (1.19 +/- 0.1 cm'2). It is filed as functional.
Test [21] has as its system Diaprepes abbreviatus. Put plainly: Antifeedant activity against Diaprepes abbreviatus in compound treated Citrus paradisi MacFad (Rutaceae) potted plants assessed as reduction in leaf consumption measured under 8 hr sunlight exposure at 18 g/l by No-choice tests. It is filed as functional, organism-based.
Test [22] relates to Diaprepes abbreviatus. Put plainly: Antifeedant activity against Diaprepes abbreviatus in compound treated Citrus paradisi MacFad (Rutaceae) potted plants assessed as reduction in leaf consumption measured under 12 hr sunlight exposure at 18 g/l by No-choice tests. The test is classed as functional, organism-based.
Test [23] relates to Diaprepes abbreviatus. Put plainly: Antifeedant activity against Diaprepes abbreviatus in compound treated healthy romaine lettuce plants assessed as area consumed from leaf disk at 18 g/l by No-choice tests (2.48 +/- 0.1 cm'2). The test is classed as functional.
In test [24] the test system is Diaprepes abbreviatus. Put plainly: Antifeedant activity against Diaprepes abbreviatus in compound treated Citrus paradisi MacFad (Rutaceae) potted plants assessed as reduction in leaf consumption measured under 4 hr sunlight exposure at 18 g/l by No-choice tests. The test is classed as functional, organism-based.
Test [25] concerns Schistocerca americana. Put plainly: Antifeedant activity against Schistocerca americana in compound treated healthy romaine lettuce plants assessed as area consumed from leaf disk at 18 g/l by choice tests (2.28 +/- 0.1 cm'2). It is filed as functional.
In test [26] the test system is Schistocerca americana. Put plainly: Antifeedant activity against Schistocerca americana in compound treated healthy romaine lettuce plants assessed as area consumed from leaf disk at 18 g/l by No-choice tests (3.14 +/- 0.1 cm'2). The test is classed as functional.

Structures are written as SMILES. The source made the active and inactive calls. The calls are words filed in the database; no cut-off is given here.

The record followed here is ChEMBL document CHEMBL3046692, “Antifeedant effect of commercial chemicals and plant extracts against Schistocerca americana (Orthoptera: Acrididae) and Diaprepes abbreviatus (Coleoptera: Curculionidae)” (2011).

In the case of `C/C=C(\C)C(=O)O[C@H]1C[C@@H](OC(C)=O)[C@@]2(C(=O)OC)CO[C@H]3[C@@H](O)[C@@](C)([C@]45O[C@@]4(C)[C@@H]4C[C@H]5O[C@@H]5OC=C[C@@]54O)[C@H]4[C@]1(CO[C@]4(O)C(=O)OC)[C@@H]32` [AZADIRACHTIN A], the result in the test on Schistocerca americana [1], with Schistocerca americana [3], in the test on Schistocerca americana [4], in the test with Schistocerca americana [6] and in the test with Schistocerca americana [7] was inactive. Besides, the Activity with Diaprepes abbreviatus [2] was determined as 0.74 cm2; with Schistocerca americana [8], 0.4 cm2; with Diaprepes abbreviatus [9], 1.8 cm2; with Schistocerca americana [11], 0.29 cm2. Moreover, the outcome with Schistocerca americana [5] and in the test with Schistocerca americana [10] was Active.
As to `COc1cc(CNC(=O)CCCC/C=C/C(C)C)ccc1O` [CAPSAICIN], the figures for the Activity in the test on Schistocerca americana [12] and in the test on Diaprepes abbreviatus [13] were 1.08 cm2 and 1.02 cm2, respectively.
Take `C=C(C)[C@H]1Cc2c(ccc3c2O[C@@H]2COc4cc(OC)c(OC)cc4[C@@H]2C3=O)O1` [ROTENONE]: the Activity was determined as 0.24 cm2 in the test on Diaprepes abbreviatus [14], 1.64 cm2 in the test with Schistocerca americana [15] and 2.42 cm2 in the test with Diaprepes abbreviatus [17]. Besides, the outcome in the test with Diaprepes abbreviatus [16], with Diaprepes abbreviatus [18] and in the test with Diaprepes abbreviatus [19] was inactive.
On to `CC(C)[C@@]1(O)[C@@H](OC(=O)c2cc[nH]c2)[C@@]2(O)[C@]3(C)C[C@@]4(O)O[C@@]5([C@H](O)[C@@H](C)CC[C@]35O)[C@@]2(O)[C@@]41C` [RYANODINE], for which the outcome in the test with Schistocerca americana [1], with Schistocerca americana [4], in the test with Diaprepes abbreviatus [21], in the test with Diaprepes abbreviatus [22], in the test with Schistocerca americana [6] and in the test on Diaprepes abbreviatus [24] was inactive. Moreover, the Activity was 0.48 cm2 in the test on Diaprepes abbreviatus [20], 1.46 cm2 in the test on Diaprepes abbreviatus [23], 0.76 cm2 with Schistocerca americana [25] and 2.35 cm2 with Schistocerca americana [26].
